Measurements: US20240368150A1 (Hoffmann-La Roche Inc., priority 2021, published 2024)
Where two headings read alike, the source gives them in different places.

Columns and labels:
MV-3 cells = assay: T-cell - TCB - MV3 killing assay (MCSP-TCB, RFP object count by Incucyte); assay type: cell-based, human; conditions: 5 d; for Emax: read-out: MSCP TCB killing MV-3 cells 5 d Emax; for EC50: primary human T-cells + MCSP-TCB, MV-3 RFP cells, read-out: MSCP TCB killing MV-3 cells 5 d EC50
primary human T-cells [1] = assay: Proliferation assay after 5 days (CellTiter-Glo, CD3 stimulation; PBS counter screen); assay type: cell-based; conditions: CD3 stimulation; for Emax / Emax proliferation (% activation): 5 days, normalized to reference compound A1 as stimulator control = 100%, DMSO neutral control; for Emax: read-out: Emax proliferation (% activation); for EC50: primary human T-cells, CellTiter-Glo after 5 days, EC50 of fitted sigmoidal curve, read-out: Tcell Proliferation CD3 EC50
Summary of the method: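 Luminescent ATP detection (CellTiter-Glo 2.0) quantified cell number 5 days after compounds went onto medium-only plates. Wells showing visible toxicity or precipitate were noted beforehand, and compounds that stimulated unstimulated cells or lowered viability were flagged.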

hDGKzeta(1-928)-N-His = hDGKzeta(1-928)-N-His (Homo sapiens (Human), UniProt Q13574); assay: DGKzeta ADP Glo assay (in vitro DGK inhibition); assay type: biochemical; conditions: DLG 125 uM, ATP 50 μM, DGK ζ 2 nM, 1 hour reaction
Chain of hDGKzeta(1-928)-N-His (Q13574 whole entry): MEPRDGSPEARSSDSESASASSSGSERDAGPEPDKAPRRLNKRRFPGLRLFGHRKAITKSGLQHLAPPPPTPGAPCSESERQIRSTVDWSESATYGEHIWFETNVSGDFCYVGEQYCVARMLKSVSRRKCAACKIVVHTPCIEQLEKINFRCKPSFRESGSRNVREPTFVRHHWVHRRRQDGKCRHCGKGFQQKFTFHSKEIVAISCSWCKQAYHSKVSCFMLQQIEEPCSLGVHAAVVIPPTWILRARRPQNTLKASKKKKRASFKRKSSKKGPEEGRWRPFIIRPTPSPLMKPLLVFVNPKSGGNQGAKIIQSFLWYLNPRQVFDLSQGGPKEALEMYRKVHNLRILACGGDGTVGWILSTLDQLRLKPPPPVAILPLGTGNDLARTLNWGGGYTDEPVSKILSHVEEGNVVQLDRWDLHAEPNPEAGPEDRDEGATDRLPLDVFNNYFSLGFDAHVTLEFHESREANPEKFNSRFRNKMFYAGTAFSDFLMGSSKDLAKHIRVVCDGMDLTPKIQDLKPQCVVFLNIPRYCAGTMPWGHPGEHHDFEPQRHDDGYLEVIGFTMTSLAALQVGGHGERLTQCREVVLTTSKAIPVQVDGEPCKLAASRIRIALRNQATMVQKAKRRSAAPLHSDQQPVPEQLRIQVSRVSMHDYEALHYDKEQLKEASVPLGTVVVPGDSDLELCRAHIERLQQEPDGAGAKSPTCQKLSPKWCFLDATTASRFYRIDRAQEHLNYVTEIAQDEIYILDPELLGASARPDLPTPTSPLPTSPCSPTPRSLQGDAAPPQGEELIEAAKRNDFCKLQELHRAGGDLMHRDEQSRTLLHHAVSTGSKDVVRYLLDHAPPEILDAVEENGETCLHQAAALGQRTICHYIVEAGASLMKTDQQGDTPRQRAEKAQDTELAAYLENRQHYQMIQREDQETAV
Summary of the method: (§1)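 His-tagged human DGKα (4 nM) and DGKζ (2 nM) phosphorylate DLG presented in DLG/PS/PC liposomes using ATP; reaction run 1 hour. ADP formed measured by ADP-Glo luminescence. Compounds tested as 11-point 1:3 dose response […], 2% DMSO final.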

primary human T-cells [2] = tested on: primary human T-cells
Experimental: As readouts for T-cell activation, IL2 secretion after 24 hours and proliferation after 5 days was measured. Increases in IL2 secretion and proliferation upon compound treatment were assessed as the % of the maximum of reference compound A1. […] As a counter screen and to make sure that no unwanted TCR-independent activation was triggered, PBS conditions were run for all compounds.
For coating of plates, PBS++ with PBS−− or PBS++ with CD3 antibody (concentration depending on donor and determined by CD3 titrations) was added 100 μl/well to Poly-D Lysine coated 96-well plates. Plates were sealed and incubated at room temperature for 3 hours on a table-top rocking platform. After incubation, plates were washed once with PBS−− and filled with 40 μl/well culture medium only. Compounds were then added (see next section) to medium only plates. After 3 hours of culturing the T-cells, cells were filtered through a cell strainer (Miltenyi Biotech, #130-041-407), counted again and concentration was adjusted to 1.25 Mio/ml.
Cells were then seeded 80 μl/well to the 40 μl/well including dispensed compounds according to plate layout. By adding cells, compounds were further diluted 1:3, and resulting in 100 k cells/120 μl/well. After 24 hours 40 μl of supernatant was collected carefully from the top while not disturbing the cells and transferred into a round bottom 96 well plate. Collected and frozen supernatant was used for detection of IL2 using the IL-2 Human ProQuantum Immunoassay Kit (Invitrogen) or using the Human IL-2 ELISA Kit (Thermo Fisher).
Compounds were added in a 5 or 6pt dose response with the Tecan D300e Digital Dispenser, all conditions 3 times more concentrated than the end-concentration, since cells are added afterwards (80 μl cells to 40 μl prepared medium with treatment). The DR was starting at 20 μM or 10 μM final top concentration and a dilution factor of 3.333. The positive control was the reference compound A1 that was added in a dose response as well, additionally to 3 wells of only 20 μM representing the positive stimulator control. All wells were normalized with DMSO to a final concentration of 0.6% (0.2% end-concentration).
The immunoassay is done following the manufacturer's manual (Invitrogen, #A35603). Additional information: For the immunoassay, MicroAmp™ EnduraPlate™ Optical 384-Well plates are used. Frozen supernatant is thawed and centrifuged for 5 minutes at 1000×g, both steps at 4° C. After centrifugation, required sample amount is taken from the top, and in a separate LightCycler V-bottom plate (working plate) diluted with assay dilution buffer, dilution factor depending on the PBS or CD3 condition but at least 1:3. IL-2 standard and blanks are prepared in the same V-bottom plate, standard with a range of 0.0128-5000 pg/ml (extended version). After preparation, 5 μl of sample dilutions or standard/blanks are transferred to the optical 384-well plate (assay plate) and the 10 μl reaction protocol is being followed. For measurement, the QuantStudio 12K Flex system is used.
ELISA is done following the manufacturer's manual (Thermo Fisher Scientific, #88-7025-88). Additional information: For the ELISA Nunc MaxiSorp 96 well plates are used. Frozen supernatant is thawed and centrifuged for 5 minutes at 1000×g, both steps at 4° C. After that, required sample amount is taken from the top, and in a separate V-bottom plate diluted with ELISA diluent, dilution factor depending on the PBS or CD3 condition. IL-2 standard and blanks are prepared in the same V-bottom plate. After preparation, 50 μl of sample dilutions and 100 μl of standard or blanks are transferred to the Nunc plates.
CD3 and PBS plates were analysed separately in Genedata Screener using Roche Normalization PCT_POS_CTRL with DMSO set as Neutral Control and 20 μM of the reference compound A1 set as Stimulator Control/100%.
For CD3 conditions EC50 and Emax of the fitted sigmoidal curve were reported.

hDGKalpha(1-735)-N-His = hDGKalpha(1-735)-N-His (Homo sapiens (Human), UniProt P23743); assay: DGKalpha ADP Glo assay (in vitro DGK inhibition); assay type: biochemical; conditions: DLG 125 uM, ATP 25 μM, DGK α 4 nM, 1 hour reaction
Chain of hDGKalpha(1-735)-N-His (P23743 whole entry): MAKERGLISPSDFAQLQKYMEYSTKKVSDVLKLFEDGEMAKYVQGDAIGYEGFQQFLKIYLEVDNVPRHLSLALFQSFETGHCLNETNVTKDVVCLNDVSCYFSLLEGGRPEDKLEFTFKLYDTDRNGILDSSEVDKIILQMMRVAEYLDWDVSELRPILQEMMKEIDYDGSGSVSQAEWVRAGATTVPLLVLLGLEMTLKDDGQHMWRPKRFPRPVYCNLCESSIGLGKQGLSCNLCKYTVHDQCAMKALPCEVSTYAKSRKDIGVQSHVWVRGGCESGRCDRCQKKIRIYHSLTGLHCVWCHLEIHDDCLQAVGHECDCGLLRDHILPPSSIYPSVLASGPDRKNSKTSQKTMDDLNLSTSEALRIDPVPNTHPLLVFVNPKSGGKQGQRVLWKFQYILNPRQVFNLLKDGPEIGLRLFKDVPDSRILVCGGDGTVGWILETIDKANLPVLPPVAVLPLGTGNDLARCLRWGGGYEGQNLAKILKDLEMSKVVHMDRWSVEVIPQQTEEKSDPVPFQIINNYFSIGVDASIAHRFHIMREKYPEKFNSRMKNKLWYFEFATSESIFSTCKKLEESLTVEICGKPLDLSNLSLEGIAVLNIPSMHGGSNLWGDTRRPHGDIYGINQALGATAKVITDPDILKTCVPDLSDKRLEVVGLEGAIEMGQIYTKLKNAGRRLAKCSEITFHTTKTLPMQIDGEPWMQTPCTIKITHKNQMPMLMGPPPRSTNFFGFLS
Summary of the method: as §1

[3] = Homo sapiens, MV-3, 120 h, normalized: MCSP-TCB only = neutral control, 20 μM reference compound A1 = 100%

SMILES: N[C@H]1CS(=O)(=O)c2cc(F)c(-c3nnc(NC4CCC4)o3)cc2N(Cc2ccc(Cl)cc2)C1=O [Example 459, (3R)-3-amino-5-[(4-chlorophenyl)methyl]-7-[5-(cyclobutylamino)-1,3,4-oxadiazol-2-yl]-8-fluoro-1,1-dioxo-2,3-dihydro-1λ^6,5-benzothiazepin-4-one]
- Emax (MV-3 cells; [3]): 91%
- EC50 (MV-3 cells; Homo sapiens, MV-3, 120 h): 0.33 µM
- Emax (primary human T-cells [1]; Homo sapiens, T-cell, 120 h): 91%
- EC50 (primary human T-cells [1]; Homo sapiens, T-cell, 120 h): 0.591 µM
- IC50 (hDGKzeta(1-928)-N-His): 0.632 µM
- EC50 (primary human T-cells [2]): 0.508 µM
- IC50 (hDGKalpha(1-735)-N-His): 0.625 µM

SMILES: CC(C)(C)c1nnc(-c2ccc3c(c2)N(Cc2ccc(OC4CCCC4)cc2)C(=O)[C@@H](N)CS3(=O)=O)o1 [Example 430, (3R)-3-amino-7-(5-tert-butyl-1,3,4-oxadiazol-2-yl)-5-[[4-(cyclopentoxy)phenyl]methyl]-1,1-dioxo-2,3-dihydro-1λ^6,5-benzothiazepin-4-one]
- Emax (MV-3 cells; [3]): 96%
- EC50 (MV-3 cells; Homo sapiens, MV-3, 120 h): 0.06 µM
- Emax (primary human T-cells [1]; Homo sapiens, T-cell, 120 h): 110%
- EC50 (primary human T-cells [1]; Homo sapiens, T-cell, 120 h): 0.097 µM
- IC50 (hDGKzeta(1-928)-N-His): 0.594 µM
- EC50 (primary human T-cells [2]): 0.0242 µM
- IC50 (hDGKalpha(1-735)-N-His): 0.467 µM

SMILES: N[C@H]1CS(=O)(=O)c2ccc(-c3nnc(C4(C5CC5)CCCO4)o3)cc2N(Cc2ccc(Cl)cc2)C1=O (stereo partly drawn) [Example 381, (3R)-3-amino-5-[(4-chlorophenyl)methyl]-7-[5-(2-cyclopropyltetrahydrofuran-2-yl)-1,3,4-oxadiazol-2-yl]-1,1-dioxo-2,3-dihydro-1λ^6,5-benzothiazepin-4-one]
- Emax (MV-3 cells; [3]): 101%
- EC50 (MV-3 cells; Homo sapiens, MV-3, 120 h): 0.16 µM
- Emax (primary human T-cells [1]; Homo sapiens, T-cell, 120 h): 119%
- EC50 (primary human T-cells [1]; Homo sapiens, T-cell, 120 h): 2.42 µM
- IC50 (hDGKzeta(1-928)-N-His): 0.658 µM
- EC50 (primary human T-cells [2]): 2.4 µM
- IC50 (hDGKalpha(1-735)-N-His): 3.31 µM

SMILES: CC(C)(C)c1nnc(-c2cc3c(cc2F)S(=N)(=O)C[C@H](N)C(=O)N3Cc2ccc(OC(F)(F)F)cc2)o1 (single isomer, unassigned) [Example 518]
- MSCP TCB killing MV-3 cells 5 d Emax (MV-3 cells; normalized: MCSP-TCB only = neutral control, 20 μM reference compound A1 = 100%): 78%
- EC50 (MV-3 cells): 0.96 µM
- Emax proliferation (% activation) (primary human T-cells [1]): 58 % activation
- EC50 (primary human T-cells [1]): 9.07 µM
- IC50 (hDGKzeta(1-928)-N-His): 0.639 µM
- EC50 (primary human T-cells [2]): 0.135 µM
- IC50 (hDGKalpha(1-735)-N-His): 0.442 µM

SMILES: CC(N)(c1nc(-c2cc3c(cc2F)S(=O)(=O)C[C@H](N)C(=O)N3Cc2ccc(OC(F)(F)F)cc2)no1)C(F)(F)F (stereo partly drawn) [Example 331, (3R)-3-amino-7-[5-(1-amino-2,2,2-trifluoro-1-methyl-ethyl)-1,2,4-oxadiazol-3-yl]-8-fluoro-1,1-dioxo-5-[[4-(trifluoromethoxy)phenyl]methyl]-2,3-dihydro-1λ^6,5-benzothiazepin-4-one]
- Emax (MV-3 cells; [3]): 116%
- EC50 (MV-3 cells; Homo sapiens, MV-3, 120 h): 0.03 µM
- Emax (primary human T-cells [1]; Homo sapiens, T-cell, 120 h): 126%
- EC50 (primary human T-cells [1]; Homo sapiens, T-cell, 120 h): 0.0584 µM
- IC50 (hDGKzeta(1-928)-N-His): 0.176 µM
- EC50 (primary human T-cells [2]): 0.0746 µM
- IC50 (hDGKalpha(1-735)-N-His): 0.857 µM

SMILES: CC(C)(C)c1nnc(-c2cc3c(cc2F)S(=N)(=O)C[C@H](N)C(=O)N3Cc2ccc(OC(F)(F)F)cc2)o1 (single isomer, unassigned) [Example 517]
- Emax (MV-3 cells; [3]): 79%
- EC50 (MV-3 cells): 0.33 µM
- Emax proliferation (% activation) (primary human T-cells [1]): 90 % activation
- EC50 (primary human T-cells [1]): 2.93 µM
- IC50 (hDGKzeta(1-928)-N-His): 0.316 µM
- EC50 (primary human T-cells [2]): 0.299 µM
- IC50 (hDGKalpha(1-735)-N-His): 0.272 µM

SMILES: CC(C)(C)n1nnc(-c2cc3c(cc2F)S(=O)(=O)C[C@H](NC(=O)CN)C(=O)N3Cc2ccc(Cl)cc2)n1 [Example 29, 2-amino-N-[(3R)-7-(2-tert-butyltetrazol-5-yl)-5-[(4-chlorophenyl)methyl]-8-fluoro-1,1,4-trioxo-2,3-dihydro-1lambda6,5-benzothiazepin-3-yl]acetamide]
- Emax (MV-3 cells; [3]): 95%
- EC50 (MV-3 cells; Homo sapiens, MV-3, 120 h): 0.037 µM
- Emax (primary human T-cells [1]; Homo sapiens, T-cell, 120 h): 172%
- EC50 (primary human T-cells [1]; Homo sapiens, T-cell, 120 h): 0.0936 µM
- IC50 (hDGKzeta(1-928)-N-His): 33.1 µM
- EC50 (primary human T-cells [2]): 0.855 µM
- IC50 (hDGKalpha(1-735)-N-His): > 62.5 µM

SMILES: N[C@H]1CS(=O)(=O)c2ccc(-c3nnc(N4CCOC(C(F)(F)F)C4)o3)cc2N(Cc2ccc(Cl)cc2)C1=O (stereo partly drawn) [Example 412, (3R)-3-amino-5-[(4-chlorophenyl)methyl]-1,1-dioxo-7-[5-[2-(trifluoromethyl)morpholin-4-yl]-1,3,4-oxadiazol-2-yl]-2,3-dihydro-1λ^6,5-benzothiazepin-4-one]
- Emax (MV-3 cells; [3]): 92%
- EC50 (MV-3 cells; Homo sapiens, MV-3, 120 h): 0.14 µM
- Emax (primary human T-cells [1]; Homo sapiens, T-cell, 120 h): 126%
- EC50 (primary human T-cells [1]; Homo sapiens, T-cell, 120 h): 0.176 µM
- IC50 (hDGKzeta(1-928)-N-His): 0.484 µM
- EC50 (primary human T-cells [2]): 2.36 µM
- IC50 (hDGKalpha(1-735)-N-His): 2.69 µM
